# Test results: US11667636B2, “Modulators of Mas-related G-protein receptor X2 and related products and methods” (Escient Pharmaceuticals, Inc., priority 2020, dated 2023)
# How the values were obtained:
# Human LAD2 cells = experiment: Mast Cell Beta-Hexosaminidase Release Assay (Cortistatin-14 induced degranulation); format: cell-based; conditions: 500 nM Cortistatin-14, percent beta-hexosaminidase release, read-out: MRGPRX2 Antagonist Activity
# Protocol: Human LAD2 cells (NIH) were maintained in an incubator at 37° C. with 5% CO2 and cultured in StemPro-34 serum-free media (Gibco 10639011) supplemented with 2 mM L-glutamine, 100 U/ml penicillin, […] streptomycin and 100 ng/ml SCF (Invitrogen PEP0860), at a concentration of 2-5×10^5 cells/mL, with hemidepletion every 1-2 weeks.
# Cells were transferred to SCF-Free medium at 2.5×10^5 cells/mL and kept in an incubator overnight. On the day of the assay, cells were washed twice in Assay Buffer (final concentrations 10 mM HEPES, 137 mM NaCl, 5.6 mM D-glucose, 2.7 mM KCl, 1 mM MgCl, 1.8 mM CalCl2, 0.4 mM Na2HPO4.7H2O, 0.04% BSA, pH=7.4) and plated in a 96-well v-bottom plate at 20,000 cells per well in 80 μL Assay Buffer. Antagonist compounds solubilized at 10 mM in DMSO were diluted in Assay Buffer to 10× final desired concentrations as a 10-point curve (10 μM final top concentration with 1:3 serial dilutions) and 10 μL added per well. Plates were then incubated for 1 hour at 37° C. Agonists were diluted in Assay Buffer to 10× desired concentrations and 10 μL of the appropriate agonist added to each well. The final concentration of Cortistatin-14 (Tocris 3374) used in antagonist assays was 500 nM. Final concentrations of DMSO were kept consistent across the plate. Plates were then incubated in a warm air oven for 30 minutes at 37° C., followed by centrifugation at 4° C. for 5 minutes at 450×g. 50 μL supernatant from each well was then transferred to a 96-well flat bottom plate containing 100 μL substrate solution per well (3.5 mg/mL p-Nitrophenyl-N-acetyl-$-D-glucosaminide (Sigma 487052) in Citrate Buffer containing a final concentration of 40 mM Citric Acid, 20 mM Na2HPO4.7H2O, pH=4.5). To the cell pellets left in the remaining assay buffer, 150 μL 0.1% Triton-X-100 was then added to each well, resuspended by pipetting up and down, and 50 μL cell lysates transferred to a second 96-well flat bottom plate containing 100 μL substrate solution per well. Plates containing transferred supernatant and cell lysates were then incubated in a warm air oven for 90 minutes at 37° C. After incubation, 50 μL of 400 mM Glycine buffer (pH 10.7) was added into each well and the plate was read on a Molecular Devices SpectraMax iD5 plate reader (absorbance at 405 nm with reference filter at 620 nm). After background subtraction, the percentage degranulation (percent beta-hexosaminidase release) was calculated as 100×(supernatant values)/(supernatant+lysate values), followed by analysis using GraphPad Prism software to calculate an IC50 value for each compound.
# The activity ranges are denoted as follows: “+++++” denotes antagonist activity <50 nM; “++++” denotes antagonist activity between 51 and 100 nM; “+++” denotes activity between 101 and 500 nM; “++” denotes activity between 501 and 1000 nM; and “+” denotes activity >1000 nM.
# human MRGPRX2 = molecular target: T1, human MRGPRX2 (Homo sapiens, UniProt Q96LB1); experiment: MRGPRX2 Activity: IP-One HTRF antagonist assay in CHO cells stably expressing human MRGPRX2, versus Cortistatin-14; format: cell-based; conditions: versus 0.3 uM Cortistatin-14 agonist, IP-1 HTRF, read-out: MRGPR2 Antagonist Activity
# T1 construct: expressed in transfected cells
# T1 sequence (Q96LB1 1-330): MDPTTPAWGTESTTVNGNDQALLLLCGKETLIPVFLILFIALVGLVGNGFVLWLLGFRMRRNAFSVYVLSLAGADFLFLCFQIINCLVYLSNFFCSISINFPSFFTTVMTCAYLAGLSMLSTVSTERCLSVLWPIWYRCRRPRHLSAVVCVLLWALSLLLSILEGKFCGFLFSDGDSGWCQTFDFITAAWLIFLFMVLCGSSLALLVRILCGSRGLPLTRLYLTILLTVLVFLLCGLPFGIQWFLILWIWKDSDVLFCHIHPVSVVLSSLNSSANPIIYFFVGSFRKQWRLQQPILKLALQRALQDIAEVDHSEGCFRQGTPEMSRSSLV
# Protocol: CHO cells stably transfected to express human MRGPRX2 were maintained in an incubator at 37° C. with 5% CO2 and grown in F12 (HAM) media with 10% fetal bovine serum (FBS), 1% Glutamax, 1% penicillin/streptomycin, 800 μg/mL Geneticin (G418), and 300 μg/mL Hygromycin B. Cells were plated in a 384-well assay plate at 20,000 cells per well in 12 μL of Opti-MEM and kept in an incubator overnight. On the day of the assay, compounds solubilized at 10 mM in DMSO were added as a 10-point curve (30 uM final top concentration with 1:3 serial dilutions) using a Tecan D300E digital dispenser. Agonists were diluted in assay buffer (final concentrations of 5.7 mM Tris-HCl, 43 mM NaCl, 50 mM LiCl, pH=8) and 2 μL of the agonist Cortistatin-14 (CPC Scientific, catalog CORT-002) are added to each well. Final concentrations of agonists were 0.3 μM Cortistatin-14. Final concentrations of DMSO were kept consistent across the plate. Plates were incubated in the dark for 1 hr at 37° C. and then for 1 hr at room temperature. IP-1 standards and HTRF detection reagents were added according to the IP-One-Gq Kit purchased from Cisbio (part number 62IPAPEJ) and incubated in the dark for 1 hr at room temperature. The plate was read on a Molecular Devices SpectraMax iD5 plate reader. The HTRF ratio was calculated from the raw data and graphed using GraphPad Prism to calculate an IC50 value for each compound.
# The activity ranges are denoted as follows: “+++++” denotes antagonist activity <50 nM; “++++” denotes antagonist activity between 51 and 100 nM; “+++” denotes activity between 101 and 500 nM; “++” denotes activity between 501 and 1000 nM; and “+” denotes activity >1000 nM
IC50 (Human LAD2 cells),IC50 (human MRGPRX2),Structure (SMILES)
< 50 nM,,CNc1ccccc1C(=O)N[C@H]1CC[C@@H](Nc2cccc3nc(C(F)(F)F)cn23)CC1 [2-71]
< 50 nM,< 50 nM,Cn1cc(C(=O)N[C@H]2CC[C@@H](Nc3cccc4nc(C(F)(F)F)cn34)CC2)c2ccccc21 [2-160]
< 50 nM,< 50 nM,O=C(N[C@H]1CC[C@@H](Nc2cccc3nc(C(F)(F)F)cn23)CC1)c1cn(C(F)F)nc1C(F)F [2-228]
< 50 nM,< 50 nM,Cn1cc(C(=O)N[C@H]2CC[C@@H](Nc3cccc4nc(C(F)(F)F)cn34)CC2)c(Cl)n1 [2-137]
< 50 nM,< 50 nM,COc1ccc(C(=O)N[C@H]2CC[C@@H](Nc3cccc4nc(C(F)(F)F)cn34)CC2)cc1 [1-1]
< 50 nM,< 50 nM,O=C(N[C@H]1CC[C@@H](Nc2cccc3nc(C(F)(F)F)cn23)CC1)c1cccc(NCC(F)F)c1 [2-178]
< 50 nM,,O=C(N[C@H]1CC[C@@H](Nc2cccc3nc(C(F)F)cn23)CC1)c1ccc(NCC(F)F)cc1 [2-61]
< 50 nM,< 50 nM,O=C(N[C@H]1CC[C@@H](Nc2cccc3nc(C(F)(F)F)cn23)CC1)c1cccc2cn[nH]c12 [2-10]
< 50 nM,< 50 nM,O=C(N[C@H]1CC[C@@H](Nc2cccc3nc(C(F)F)cn23)CC1)c1ccnc2[nH]ccc12 [2-24]
< 50 nM,< 50 nM,COc1ccc(C(=O)N[C@H]2CC[C@@H](Nc3cccc4nc(C(F)F)cn34)CC2)c(NCC(F)(F)F)c1 [2-28]
< 50 nM,< 50 nM,O=C(N[C@H]1CC[C@@H](Nc2cccc3nc(C(F)(F)F)cn23)CC1)c1cccc2c(F)n[nH]c12 [2-153]
< 50 nM,< 50 nM,O=C(N[C@H]1CC[C@@H](Nc2cccc3nc(C(F)F)cn23)CC1)c1ccccc1NCC(F)(F)F [2-143]
< 50 nM,,O=C(N[C@H]1CC[C@@H](Nc2cccc3nc(C(F)F)cn23)CC1)c1ccccc1NCCF [2-222]
< 50 nM,101 to 500 nM,"O=C(N[C@H]1CC[C@@H](Nc2cccc3sc(C(F)(F)F)cc23)CC1)c1ccc(F)cc1 [Example 1, 4-fluoro-N-((1s,4s)-4-((2-(trifluoromethyl)benzo[b]thiophen-4-yl)amino)cyclohexyl) benzamide]"
< 50 nM,< 50 nM,O=C(N[C@H]1CC[C@@H](Nc2cccc3nc(C(F)F)cn23)CC1)c1ccccc1NCC(F)F [2-142]
< 50 nM,,O=C(N[C@H]1CC[C@@H](Nc2cccc3nc(C(F)(F)F)cn23)CC1)c1cccc2cnsc12 [2-52]
< 50 nM,51 to 100 nM,CS(=O)(=O)Nc1cccc(C(=O)N[C@H]2CC[C@@H](Nc3cccc4sc(C(F)(F)F)cc34)CC2)c1 [2-6]
